From ChEMBL document CHEMBL1201862, “PubChem BioAssay data set” (2004) come the findings set out here.

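Step 1: Grow cells in 96-well plates. Step 2: Expose to compound for 48 hours at 5 concentrations. Step 3: Interpolate endpoints linearly; if unreached, use highest concentration. At the GI50, growth is halved.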 Activity calls are given as the source filed them. No stated cut-off is given here; in the data, active = GI50 up to about 1.1 µM and inactive = higher.

Holding throughout (experiment): NCI tumour cell line growth inhibition, 48 h
Experiment [1] concerns MOLT-4.
Experiment [2] concerns SN12C.
Experiment [3] has as its system HCT-15.
The test system of experiment [4] is SNB-75.
For experiment [5], the system named is UACC-62.
The test system of experiment [6] is NCI/ADR-RES.
The test system of experiment [7] is KM12.
In experiment [8] the test system is OVCAR-3.
In experiment [9] the test system is SK-MEL-2.
Experiment [10] has as its system MDA-MB-231.
Experiment [11] relates to NCI-H460.
Experiment [12] relates to SF-295.
Experiment [13] relates to OVCAR-8.
Experiment [14] has as its system EKVX.
The subject of experiment [15] is SW-620.
The subject of experiment [16] is SNB-19.
In experiment [17] the test system is U-251.
Experiment [18] concerns DU-145.

As to `NC(=O)NNc1nc2ccccc2c(=O)n1NC(=O)C(=O)Nc1ccc(Cl)cc1Cl`, the GI50 in [1] was > 100 µM (inactive); in [2] it was > 100 µM (inactive); in experiment [3], more than 100 µM; in experiment [4] it was > 100 µM (inactive); in [5], > 100 µM (inactive); in experiment [6] it was > 100 µM (inactive). For the same compound, the GI50 in [7], in experiment [8], in experiment [9], in experiment [10], in experiment [11] and in [12] was > 100 µM (inactive) throughout. Further, the GI50 is > 100 µM (inactive) in experiment [13]; 66.8 µM (inactive) in experiment [14]; > 100 µM (inactive) in [15]; 81.1 µM (inactive) in experiment [16]; > 100 µM (inactive) in experiment [17].

With `S=C(Nc1cccc(Cl)c1)Nc1ccccn1`, the GI50 was > 100 µM (inactive) in experiment [1]; > 100 µM (inactive) in experiment [2]; more than 100 µM in experiment [3]; 1.14 µM (inactive) in experiment [4]; > 100 µM (inactive) in [5]; > 100 µM (inactive) in experiment [6]. Further, the GI50 in [7] is 13.5 µM (inactive); in experiment [18], > 100 µM (inactive); in experiment [8], > 100 µM (inactive); in experiment [9], > 100 µM (inactive); in [11], > 100 µM (inactive); in experiment [12], > 100 µM (inactive). Moreover, the GI50 in experiment [13] was > 100 µM (inactive); in [14], 82 µM (inactive); in [15], > 100 µM (inactive); in [16], > 100 µM (inactive); in [17], > 100 µM (inactive).

Turning to `COc1cc(C2c3cccc4cccc(c34)C3CCC(=O)N32)cc(OC)c1O` (stereo not given), the GI50 in experiment [1] is > 50 µM (inactive); in [2], > 50 µM (inactive); in experiment [3] it was more than 50 µM; in experiment [4] it was > 50 µM (inactive); in experiment [5] it was > 50 µM (inactive); in [6], > 50 µM (inactive). Further, the GI50 in [7], in experiment [18], in experiment [8], in experiment [9], in [11] and in experiment [12] was > 50 µM (inactive) throughout. The GI50 in experiment [13], in experiment [14], in experiment [15], in experiment [16] and in experiment [17] was > 50 µM (inactive) throughout.

For `COc1cc(S(=O)(=O)Nc2ccc(-c3csc(N4C(=O)C(Cl)C4c4cccs4)n3)cc2)ccc1Cl` (stereo not given), the GI50 in experiment [1] was 11.4 µM (inactive); in [2] it was 82.6 µM (inactive); in [3], more than 100 µM; in [4], > 100 µM (inactive); in experiment [5] it was 22.2 µM (inactive); in [6], > 100 µM (inactive). The GI50 in experiment [7] was 49.2 µM (inactive); in experiment [18], > 100 µM (inactive); in experiment [8], > 100 µM (inactive); in experiment [9] it was > 100 µM (inactive); in experiment [11] it was 71.6 µM (inactive); in experiment [12], > 100 µM (inactive). Besides, the GI50 was 70.6 µM (inactive) in experiment [13], 7.55 µM (inactive) in [14], 43.4 µM (inactive) in [15] and > 100 µM (inactive) in experiment [16].

For `CCCCCCCCCCC[N+]1(Cc2ccccc2)CC2CCN(Cc3ccccc3)CC2C1` (stereo not given), the GI50 in experiment [1] is 0.199 µM (active); in experiment [2] it was 0.327 µM (active); in [3], 1.52 µM; in experiment [4] it was 1.15 µM (inactive); in experiment [6] it was 5.09 µM (inactive); in experiment [7] it was 0.247 µM (active). Besides, the GI50 in [18] was 0.47 µM (active); in [8] it was 0.371 µM (active); in experiment [9], 0.261 µM (active); in experiment [11] it was 1.29 µM (inactive); in experiment [12], 1.09 µM (active); in experiment [13] it was 0.422 µM (active). Besides, the GI50 in experiment [14] is 0.323 µM (active); in [15], 0.381 µM (active); in [16], 0.371 µM (active); in [17], 0.261 µM (active).

`Cc1nc2c(C)ccc([N+](=O)[O-])c2c(NCCCN(C)C)c1C`: the GI50 is 28.3 µM (inactive) in experiment [1]; > 62.8 µM (inactive) in [2]; more than 39.4 µM in experiment [3]; > 65.3 µM (inactive) in [4]; 37.2 µM (inactive) in experiment [5]; > 100 µM (inactive) in [6]. Also, the GI50 is > 100 µM (inactive) in [7]; > 100 µM (inactive) in experiment [18]; 47.9 µM (inactive) in experiment [8]; > 44.6 µM (inactive) in [9]; 57 µM (inactive) in experiment [11]; 38.4 µM (inactive) in [12]. Further, the GI50 was > 46.6 µM (inactive) in experiment [13]; > 59.7 µM (inactive) in [14]; > 38.5 µM (inactive) in experiment [15]; > 100 µM (inactive) in experiment [16]; > 57.8 µM (inactive) in experiment [17].

Consider `O=C1[C@H]2C(c3ccccc3)=NN(C(=O)c3ccccc3)[C@H]2C(=O)N1c1ccccc1`, for which the GI50 was > 100 µM (inactive) in [1]; > 100 µM (inactive) in experiment [2]; more than 100 µM in [3]; > 100 µM (inactive) in [4]; > 100 µM (inactive) in experiment [5]; > 100 µM (inactive) in experiment [7]. For the same compound, the GI50 in experiment [8], in experiment [9], in experiment [11], in experiment [12], in [13] and in experiment [14] was > 100 µM (inactive) throughout. The GI50 in experiment [15], in [16] and in experiment [17] was > 100 µM (inactive) in each case.

Turning to `COP(=O)(OC)C(O)/C=C/c1ccco1` (stereo not given), the GI50 in [1] was > 100 µM (inactive); in experiment [2] it was > 100 µM (inactive); in [3] it was more than 100 µM; in [5], > 100 µM (inactive); in experiment [6], > 100 µM (inactive); in experiment [7] it was > 100 µM (inactive). Besides, the GI50 in experiment [18], in experiment [8], in [9], in experiment [12], in [13] and in experiment [14] was > 100 µM (inactive) each time. Also, the GI50 in experiment [15], in experiment [16] and in [17] was > 100 µM (inactive) throughout.

`C=C1C(OC2O[C@@H]3O[C@@]4(C)CC[C@H]5[C@H](C)CC[C@@H](C2=C)[C@@]35O4)O[C@@H]2O[C@@]3(C)CC[C@H]4[C@H](C)CC[C@@H]1[C@@]24O3` (stereo not given in full): the GI50 in experiment [1] was > 50 µM (inactive); in experiment [2] it was > 50 µM (inactive); in experiment [3], more than 50 µM; in [5] it was > 50 µM (inactive); in experiment [7] it was > 50 µM (inactive); in experiment [18], > 50 µM (inactive). Further, the GI50 in experiment [8], in [9], in [10], in [11], in experiment [12] and in experiment [14] was > 50 µM (inactive) each time. The GI50 in experiment [15], in experiment [16] and in [17] was > 50 µM (inactive) in each case.
